Data on five compounds can be found in patent US6987132B1, “Enediyne compounds and methods related thereto” (Advanced Research and Technology Institute, Inc., priority 2000, dated 2006).

Data set [1] can be described thus: Bergman enediyne cyclization temperature by differential scanning calorimetry (DSC) on neat materials. Type of data set: physicochemical. The settings on record: for Cyclization Temperature: free ligand, neat material, DSC, heating rate 10° C. min^−1; for Bergman cyclization temperature: comparison enediynes named in text, method not stated for them. The procedure: All preparations were carried out in an inert atmosphere (nitrogen) using Schlenk and drybox techniques. Chemicals used in the syntheses were of the highest purity available from Aldrich Chemical Company and used as received. Dichloromethane was dried and distilled from calcium hydride. The organic compounds were purified by flash chromatography with 60 Å Silica gel ([…]) using HPLC grade solvents. ^1H and ^13C NMR were recorded on VXR 400 MHz NMR spectrometer using the residual proton resonance as an internal reference. The multiplicity of the ^13C signals was determined by the DEPT technique. EI and FAB MS spectra were acquired on a Kratos MS-80 mass spectrometer that was interfaced with a Kratos DS90 data system. Differential scanning calorimetry traces were recorded on a General V4.1C DuPont 910 DSC differential scanning calorimeter coupled to a Dupont Thermal Analyst 2100 at a heating rate of 10° C. min^−1.

Data set [2] is described as follows: Reactivity of enediyne ligand upon addition of metal salts at room temperature. In kind it is physicochemical.
The nature of data set [3]: Thermal cyclization temperature and stability of free ligands in solution. As to conditions: for could tolerate heating to (temperature): free ligand in solution; for thermal cyclization temperature in solution: absence of metal.
Data set [4] is described as follows: Pseudo first-order rate constant and half-life of thermal reactivity in DMSO by 1H NMR. In kind it is physicochemical. The settings on record: 65° C., 20-fold cyclohexadiene. From the text: As is often observed in solution cyclization reactions of enediynes, a series of products was produced, which in this case included di-substituted benzenes, and as such no dominant species could be isolated from the reaction.

Consider `C(#CCN=Cc1ccccn1)/C=C\C#CCN=Cc1ccccn1` (stereo in doubt) [Compound 14, (Z)-N,N′-Bis[1-pyridin-2-yl-meth-(E)-ylidene]oct-4-ene-2,6-diyne-1,8-diamine], for which the “Cyclization Temperature” value in data set [1] is 100 °C. Besides, the “time to reaction completion” value worked out at 2 h in data set [2] (addition of MgCl2, no additional heating) and 0.083 h in data set [2] (addition of zinc acetate). Besides, the “observation upon addition of Zn(II) or Cu(II)” value in data set [2] (room temperature) is listed as “turned black instantaneously”. Moreover, the “could tolerate heating to (temperature)” value in data set [3] is “about 50 °C”. Also, in data set [3], the “thermal cyclization temperature in solution” value was “about 55 °C”.

In turn, `C(#Cc1cccnc1)C=CC#Cc1cccnc1` [1,6-bis(pyridine-3)hex-3-ene-1,5-diyne, reference compound] registered a Bergman cyclization temperature in data set [1] of 195 °C.

`CN(C)CC#CC=CC#CCN(C)C` [Compound 4, 1,8-bis(dimethylamino)oct-4-ene-2,6-diyne]: the “Cyclization Temperature” value in data set [1] turned out to be 186 °C.

For `NCC#CC=CC#CCN` [Compound 12, 1,8-diaminooct-4-ene-2,6-diyne], the “Cyclization Temperature” value in data set [1] was determined as 106 °C. In addition, the “decrease in the Bergman cyclization temperature” value in data set [1] (relative to the preceding compound of the series 4, 9, 12) stood at 37 °C. Moreover, in data set [3], the “could tolerate heating to (temperature)” value was “about 50 °C” and the “thermal cyclization temperature in solution” value was “about 65 °C”. Besides, the “pseudo first-order rate constant kobs” value in data set [4] is 0.0416 h⁻¹.

`C(#CCOc1cccnc1)C=CC#CCOc1cccnc1` [bpod, 1,8-bis(pyridine-3-oxy)oct-4-ene-2,6-diyne, reference compound] had a Bergman cyclization temperature in data set [1] of 136 °C.
